Measured values published in paper PMC8036666, “Biological and Physico-Chemical Characteristics of Arginine-Rich Peptide Gemini Surfactants with Lysine and Cystine Spacers” (International Journal of Molecular Sciences, 2021).

Experiment: in vitro
Conditions: human, 25% (v/v) normal human serum
Description: Serum stability of peptides B7 and C7 was tested in normal human serum (Sigma-Aldrich, Steinheim, Germany) according to the modified Jenssen and Aspmo protocol. Briefly, compounds were incubated in 25% (v/v) human serum solution in RPMI-1640 (Sigma-Aldrich, Steinheim, Germany) at 37 ± 0.1 °C. The final compound concentration was 50 µg/mL. Time intervals were 0, 1, 2, 3, 4, and 5 h. To precipitate serum proteins, 100 µL of solution was added to 200 µL of 96% ethanol (Pure P.A., POCH, Avantor Performance Materials S.A, Gliwice, Poland) and incubated at 4 °C before centrifugation (4 °C, 18,000× g, 2 min; Sorvall ST 16R Centrifuge, Thermo Scientific, Osterode am Harz, Germany). Subsequently, 200 µL of supernatant was transferred to glass vials (1.5 mL, Anchem, Poland), and the liquid was evaporated under nitrogen at 37 °C (approximately 30 min). The vials were lyophilized for 24 h to remove traces of solvents.
The influence of serum matrix on calibration curves was eliminated by the preparation of a series of vials with residual substances from serum. Briefly, ethanol was added to serum solution to precipitate proteins. Subsequently, the precipitate was centrifuged, and the supernatant was collected and evaporated to dryness as described above. Standards of the analyzed compounds were prepared in demineralized water in concentration ranging from 1 to 15 ppm. Next, 333 µL of solutions were moved to vials containing residual matrix substances (blank, without surfactant). Similarly, samples obtained after serum stability experiments were dissolved in 333 µL of demineralized water and analyzed. Analyses were performed using UPLC-HRMS. The mobile phase contained deionized water (solvent A) and acetonitrile (solvent B; ACN for HPLC-gradient grade; POCH, Avantor, Gliwice, Poland) both supplemented with a 0.1% (v/v) formic acid (Sigma-Aldrich, Steinheim, Germany).
The quantification of lipopeptides was performed using an Agilent 1290 Infinity chromatograph and Agilent 6550 Quadrupole Time-of-flight (Q-TOF) high-resolution mass spectrometer (HRMS). Gradient LC analyses were conducted using a ZORBAX Eclipse Plus C18 column (Rapid Resolution HD, 2.1 × 50 mm, 1.8 µm) and mobile phases: A—water containing 0.3% of acetonitrile and B—acetonitrile, both with 0.1% (v/v) formic acid. […] The mass detector equipped with an ESI source in HRMS mode was set in scanning mode 100–1700 m/z range in positive ionization. Chromatograms for a desired m/z value were extracted, and calibration curves were prepared using Mass Hunter software. All standards and serum samples were subjected to LC-MS analysis, and all analyses were performed in triplicate. Calibration curves were prepared for chromatograms extracted for m/z values corresponding to mono-, di-, tri- and tetra-charged ions. For analysis of peptide C7, a pseudomolecular ion [M+H]^+ (m/z 1227.8017) was selected, while for the other peptide B7, triple charged ion [M+3H]^3+ (m/z 378.9606).

Compound | remaining at 0 h, 50 µg/mL [%] | remaining at 1 h, 50 µg/mL [%] | remaining at 2 h, 50 µg/mL [%] | remaining at 3 h, 50 µg/mL [%] | remaining at 4 h, 50 µg/mL [%] | remaining at 5 h, 50 µg/mL [%]
CCCCCCC(CCCC)C(=O)N[C@@H](CCCNC(=N)N)C(=O)N[C@@H](CCCNC(=N)N)C(=O)N[C@@H](CSSC[C@H](NC(=O)[C@H](CCCNC(=N)N)NC(=O)[C@H](CCCNC(=N)N)NC(=O)C(CCCC)CCCCCC)C(N)=O)C(N)=O (stereo partly drawn) [Compound C7] | 100 ± 1.1 | 92.2 ± 2.1 | 82.5 ± 1.3 | 79.2 ± 1.6 | 72.8 ± 3 | 59.4 ± 1
CCCCCCC(CCCC)C(=O)N[C@@H](CCCNC(=N)N)C(=O)N[C@@H](CCCNC(=N)N)C(=O)NCCCC[C@H](NC(=O)[C@H](CCCNC(=N)N)NC(=O)[C@H](CCCNC(=N)N)NC(=O)C(CCCC)CCCCCC)C(N)=O (stereo partly drawn) [Compound B7] | 100 ± 2.4 | 94.3 ± 1.8 | 87.3 ± 1.7 | 83.1 ± 1.6 | 80.1 ± 1.2 | 63.2 ± 2.9
